According to ChEMBL document CHEMBL1201862, “PubChem BioAssay data set” (2004):
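How tested: cells in 96-well plates exposed to compound for 48 hours at five concentrations. The concentration for 50% growth inhibition is given as GI50.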 Activity calls are given as the source filed them. Cut-off read from the data, not from the text of the source: active = GI50 up to about 1.1 µM and inactive = higher.

Assays:
Assay in all cases: NCI tumour cell line growth inhibition, 48 h
DMS-114 = test system: DMS-114
M19-MEL = test system: M19-MEL
SK-OV-3 = test system: SK-OV-3
EKVX = test system: EKVX
UO-31 = test system: UO-31
SNB-19 = test system: SNB-19
NCI-H460 = test system: NCI-H460
CAKI-1 = test system: CAKI-1
K562 = test system: K562
LOX IMVI = test system: LOX IMVI
RXF 393 = test system: RXF 393
UACC-62 = test system: UACC-62
OVCAR-5 = test system: OVCAR-5
OVCAR-4 = test system: OVCAR-4
HCC 2998 = test system: HCC 2998
Malme-3M = test system: Malme-3M
HOP-62 = test system: HOP-62
HOP-18 = test system: HOP-18
NCI/ADR-RES = test system: NCI/ADR-RES
UACC-257 = test system: UACC-257
NCI-H23 = test system: NCI-H23
HCT-116 = test system: HCT-116
U-251 = test system: U-251
XF498 = test system: XF498
SF-295 = test system: SF-295
SK-MEL-2 = test system: SK-MEL-2
NCI-H522 = test system: NCI-H522
HOP-92 = test system: HOP-92
KM-20L2 = test system: KM-20L2
CCRF-CEM = test system: CCRF-CEM
DMS-273 = test system: DMS-273
OVCAR-8 = test system: OVCAR-8
SK-MEL-5 = test system: SK-MEL-5
SF-539 = test system: SF-539
A549 = test system: A549
IGROV-1 = test system: IGROV-1
HL-60 = test system: HL-60
RPMI-8226 = test system: RPMI-8226
NCI-H226 = test system: NCI-H226
SK-MEL-28 = test system: SK-MEL-28
HCT-15 = test system: HCT-15
SNB-78 = test system: SNB-78
SN12C = test system: SN12C
A498 = test system: A498
MCF7 = test system: MCF7
COLO 205 = test system: COLO 205
HT-29 = test system: HT-29
KM12 = test system: KM12
SW-620 = test system: SW-620
SF-268 = test system: SF-268
MOLT-4 = test system: MOLT-4
SNB-75 = test system: SNB-75
OVCAR-3 = test system: OVCAR-3
DLD-1 = test system: DLD-1
ACHN = test system: ACHN
TK-10 = test system: TK-10
LXFL 529 = test system: LXFL 529
786-0 = test system: 786-0
M14 = test system: M14

O=C1CCCCN1
GI50 (DMS-114): > 1120 µM (inactive) | GI50 (M19-MEL): > 403 µM (inactive) | GI50 (SK-OV-3): > 150 µM (inactive) | GI50 (EKVX): > 258 µM (inactive) | GI50 (UO-31): > 1120 µM (inactive) | GI50 (SNB-19): > 1120 µM (inactive) | GI50 (NCI-H460): > 1120 µM (inactive) | GI50 (CAKI-1): > 1120 µM (inactive) | GI50 (K562): > 1120 µM (inactive) | GI50 (LOX IMVI): > 1120 µM (inactive) | GI50 (RXF 393): 272 µM (inactive) | GI50 (UACC-62): > 411 µM (inactive) | GI50 (OVCAR-5): > 1120 µM (inactive) | GI50 (OVCAR-4): > 1120 µM (inactive) | GI50 (HCC 2998): 333 µM (inactive) | GI50 (Malme-3M): > 1120 µM (inactive) | GI50 (HOP-62): > 1120 µM (inactive) | GI50 (HOP-18): 232 µM (inactive) | GI50 (NCI/ADR-RES): 248 µM (inactive) | GI50 (UACC-257): > 1120 µM (inactive) | GI50 (NCI-H23): > 1120 µM (inactive) | GI50 (HCT-116): > 1120 µM (inactive) | GI50 (U-251): > 252 µM (inactive) | GI50 (XF498): 89.3 µM (inactive) | GI50 (SF-295): > 1120 µM (inactive) | GI50 (SK-MEL-2): > 1120 µM (inactive) | GI50 (NCI-H522): > 1120 µM (inactive) | GI50 (HOP-92): > 1120 µM (inactive) | GI50 (KM-20L2): > 1120 µM (inactive) | GI50 (CCRF-CEM): > 1120 µM (inactive) | GI50 (DMS-273): > 1120 µM (inactive) | GI50 (OVCAR-8): > 1120 µM (inactive) | GI50 (SK-MEL-5): > 1120 µM (inactive) | GI50 (SF-539): > 1120 µM (inactive) | GI50 (A549): > 1120 µM (inactive) | GI50 (IGROV-1): > 1120 µM (inactive) | GI50 (HL-60): 706 µM (inactive) | GI50 (RPMI-8226): > 1120 µM (inactive) | GI50 (NCI-H226): 635 µM (inactive) | GI50 (SK-MEL-28): > 1120 µM (inactive) | GI50 (HCT-15): > 1120 µM | GI50 (SNB-78): > 1120 µM (inactive) | GI50 (SN12C): > 267 µM (inactive) | GI50 (A498): > 52 µM (inactive) | GI50 (MCF7): > 1120 µM (inactive) | GI50 (COLO 205): > 1120 µM (inactive) | GI50 (HT-29): > 1120 µM (inactive) | GI50 (KM12): > 1120 µM (inactive) | GI50 (SW-620): > 1120 µM (inactive) | GI50 (SF-268): > 1120 µM (inactive) | GI50 (MOLT-4): 706 µM (inactive) | GI50 (SNB-75): > 1120 µM (inactive) | GI50 (OVCAR-3): > 1120 µM (inactive) | GI50 (DLD-1): 879 µM (inactive)

O=C1C(=O)N(c2nccs2)C(=O)C(=O)C1c1nc2ccccc2s1
GI50 (DMS-114): > 100 µM (inactive) | GI50 (M19-MEL): > 100 µM (inactive) | GI50 (SK-OV-3): > 100 µM (inactive) | GI50 (EKVX): > 100 µM (inactive) | GI50 (UO-31): > 100 µM (inactive) | GI50 (SNB-19): > 100 µM (inactive) | GI50 (ACHN): > 100 µM (inactive) | GI50 (NCI-H460): > 100 µM (inactive) | GI50 (CAKI-1): > 100 µM (inactive) | GI50 (LOX IMVI): > 100 µM (inactive) | GI50 (RXF 393): > 100 µM (inactive) | GI50 (UACC-62): > 100 µM (inactive) | GI50 (OVCAR-5): > 100 µM (inactive) | GI50 (OVCAR-4): > 100 µM (inactive) | GI50 (HCC 2998): > 100 µM (inactive) | GI50 (Malme-3M): > 100 µM (inactive) | GI50 (TK-10): > 100 µM (inactive) | GI50 (HOP-62): > 100 µM (inactive) | GI50 (LXFL 529): 94 µM (inactive) | GI50 (786-0): > 100 µM (inactive) | GI50 (HOP-18): 9.23 µM (inactive) | GI50 (UACC-257): > 100 µM (inactive) | GI50 (NCI-H23): > 100 µM (inactive) | GI50 (HCT-116): > 100 µM (inactive) | GI50 (M14): > 100 µM (inactive) | GI50 (U-251): 83 µM (inactive) | GI50 (XF498): > 100 µM (inactive) | GI50 (SF-295): > 100 µM (inactive) | GI50 (SK-MEL-2): > 100 µM (inactive) | GI50 (HOP-92): > 100 µM (inactive) | GI50 (KM-20L2): > 100 µM (inactive) | GI50 (DMS-273): > 100 µM (inactive) | GI50 (OVCAR-8): > 100 µM (inactive) | GI50 (SF-539): > 100 µM (inactive) | GI50 (A549): > 100 µM (inactive) | GI50 (IGROV-1): > 100 µM (inactive) | GI50 (RPMI-8226): > 100 µM (inactive) | GI50 (NCI-H226): > 100 µM (inactive) | GI50 (SK-MEL-28): > 100 µM (inactive) | GI50 (HCT-15): > 100 µM | GI50 (SNB-78): > 100 µM (inactive) | GI50 (SN12C): > 100 µM (inactive) | GI50 (COLO 205): > 100 µM (inactive) | GI50 (HT-29): > 100 µM (inactive) | GI50 (KM12): > 100 µM (inactive) | GI50 (SW-620): > 100 µM (inactive) | GI50 (SF-268): > 100 µM (inactive) | GI50 (SNB-75): > 100 µM (inactive) | GI50 (OVCAR-3): > 100 µM (inactive) | GI50 (DLD-1): > 100 µM (inactive)
